Results reported in ChEMBL document CHEMBL6127020, “Discovery of aminopiperidine based potent & novel topoisomerase inhibitor with broad spectrum anti-bacterial activity” (Bioorg Med Chem Lett, 2024).
In brackets after ≈: the same amount, converted by molar mass.

Experiments:
[1] = test system: Escherichia coli; assay: Antibacterial activity against Escherichia coli ATCC 25922 assessed as inhibition of bacterial growth; assay type: functional
[2] = test system: Staphylococcus aureus; assay: Antibacterial activity against Staphylococcus aureus ATCC 29213 assessed as inhibition of bacterial growth; assay type: functional
[3] = biological target: DNA gyrase (Staphylococcus aureus, UniProt P0A0K8+P20831); assay: Inhibition of Staphylococcus aureus DNA gyrase; assay type: protein-complex assay
[4] = biological target: Cytochrome P450 2D6 (Homo sapiens, UniProt P10635); assay: Inhibition of CYP2D6 (unknown origin) at 10 uM; assay type: ADME
[5] = biological target: Cytochrome P450 3A4 (Homo sapiens, UniProt P08684); assay: Inhibition of CYP3A4 (unknown origin) at 10 uM; assay type: ADME
[6] = biological target: T1, Cytochrome P450 1A2 (Homo sapiens, UniProt P05177); assay: Inhibition of CYP1A2 (unknown origin) at 10 uM; assay type: ADME
T1 sequence (P05177 whole entry): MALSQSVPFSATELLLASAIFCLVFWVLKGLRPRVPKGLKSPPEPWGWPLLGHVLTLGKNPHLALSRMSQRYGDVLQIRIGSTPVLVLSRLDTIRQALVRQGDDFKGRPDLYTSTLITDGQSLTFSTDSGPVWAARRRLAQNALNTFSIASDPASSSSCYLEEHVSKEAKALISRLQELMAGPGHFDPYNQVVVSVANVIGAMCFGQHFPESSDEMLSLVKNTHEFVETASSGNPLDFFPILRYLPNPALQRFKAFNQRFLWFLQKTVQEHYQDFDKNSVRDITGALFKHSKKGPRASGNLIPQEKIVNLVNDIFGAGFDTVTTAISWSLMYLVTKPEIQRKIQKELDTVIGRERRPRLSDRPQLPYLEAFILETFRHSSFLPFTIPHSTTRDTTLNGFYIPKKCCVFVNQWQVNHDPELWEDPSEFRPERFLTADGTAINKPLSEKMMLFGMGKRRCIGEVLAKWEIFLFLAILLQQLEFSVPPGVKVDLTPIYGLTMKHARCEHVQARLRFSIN

[7] = biological target: Topoisomerase IV (Staphylococcus aureus, UniProt P0C1S7+P0C1U9); assay: Inhibition of Staphylococcus aureus DNA topoisomerase 4; assay type: protein-complex assay
[8] = biological target: Cytochrome P450 2C19 (Homo sapiens, UniProt P33261); assay: Inhibition of CYP2C19 (unknown origin) at 10 uM; assay type: ADME
[9] = biological target: T2, Cytochrome P450 2C8 (Homo sapiens, UniProt P10632); assay: Inhibition of CYP2C8 (unknown origin) at 10 uM; assay type: ADME
T2 sequence (P10632 whole entry): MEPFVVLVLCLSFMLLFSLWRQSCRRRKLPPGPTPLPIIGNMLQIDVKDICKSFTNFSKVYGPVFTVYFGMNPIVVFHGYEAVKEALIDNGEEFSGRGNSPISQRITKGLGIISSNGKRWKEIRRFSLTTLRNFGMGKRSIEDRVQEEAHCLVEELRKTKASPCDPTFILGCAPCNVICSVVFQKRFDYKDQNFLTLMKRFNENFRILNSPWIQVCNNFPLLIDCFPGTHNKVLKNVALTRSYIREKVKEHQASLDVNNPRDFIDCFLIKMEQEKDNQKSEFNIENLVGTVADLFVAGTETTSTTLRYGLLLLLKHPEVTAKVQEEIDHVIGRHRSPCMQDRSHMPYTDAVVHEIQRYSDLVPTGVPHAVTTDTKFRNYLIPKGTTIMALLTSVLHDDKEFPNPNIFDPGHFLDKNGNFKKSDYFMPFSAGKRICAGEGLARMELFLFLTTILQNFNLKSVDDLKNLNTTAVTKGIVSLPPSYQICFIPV

Cytochrome P450 2C19, sequence (P33261 whole entry): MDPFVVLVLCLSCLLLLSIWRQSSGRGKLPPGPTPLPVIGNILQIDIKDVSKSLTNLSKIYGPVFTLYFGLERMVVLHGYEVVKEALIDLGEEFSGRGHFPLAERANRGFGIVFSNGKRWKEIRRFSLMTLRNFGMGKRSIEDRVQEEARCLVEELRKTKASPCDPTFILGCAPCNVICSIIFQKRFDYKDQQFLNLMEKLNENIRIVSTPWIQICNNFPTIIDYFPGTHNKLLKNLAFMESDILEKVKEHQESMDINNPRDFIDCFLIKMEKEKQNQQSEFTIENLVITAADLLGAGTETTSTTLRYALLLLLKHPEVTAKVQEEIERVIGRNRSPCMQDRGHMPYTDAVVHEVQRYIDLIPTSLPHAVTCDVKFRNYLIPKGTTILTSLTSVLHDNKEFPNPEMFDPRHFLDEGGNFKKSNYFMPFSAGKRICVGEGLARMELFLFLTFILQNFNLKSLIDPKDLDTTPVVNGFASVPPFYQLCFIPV
Cytochrome P450 3A4, sequence (P08684 whole entry): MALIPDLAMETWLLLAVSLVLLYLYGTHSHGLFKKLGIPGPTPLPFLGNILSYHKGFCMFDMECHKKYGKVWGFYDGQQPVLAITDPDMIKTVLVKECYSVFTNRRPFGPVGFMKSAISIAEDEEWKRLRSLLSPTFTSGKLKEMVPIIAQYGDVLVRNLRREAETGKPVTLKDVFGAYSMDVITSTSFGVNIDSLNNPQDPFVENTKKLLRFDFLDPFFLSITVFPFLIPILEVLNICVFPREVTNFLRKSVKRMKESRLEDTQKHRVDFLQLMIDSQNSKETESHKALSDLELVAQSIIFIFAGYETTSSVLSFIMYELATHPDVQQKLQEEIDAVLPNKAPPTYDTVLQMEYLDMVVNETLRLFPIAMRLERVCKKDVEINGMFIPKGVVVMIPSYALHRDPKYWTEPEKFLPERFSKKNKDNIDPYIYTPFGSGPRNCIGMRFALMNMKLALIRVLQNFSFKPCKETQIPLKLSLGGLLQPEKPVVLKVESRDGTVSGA
Cytochrome P450 2D6, sequence (P10635 whole entry): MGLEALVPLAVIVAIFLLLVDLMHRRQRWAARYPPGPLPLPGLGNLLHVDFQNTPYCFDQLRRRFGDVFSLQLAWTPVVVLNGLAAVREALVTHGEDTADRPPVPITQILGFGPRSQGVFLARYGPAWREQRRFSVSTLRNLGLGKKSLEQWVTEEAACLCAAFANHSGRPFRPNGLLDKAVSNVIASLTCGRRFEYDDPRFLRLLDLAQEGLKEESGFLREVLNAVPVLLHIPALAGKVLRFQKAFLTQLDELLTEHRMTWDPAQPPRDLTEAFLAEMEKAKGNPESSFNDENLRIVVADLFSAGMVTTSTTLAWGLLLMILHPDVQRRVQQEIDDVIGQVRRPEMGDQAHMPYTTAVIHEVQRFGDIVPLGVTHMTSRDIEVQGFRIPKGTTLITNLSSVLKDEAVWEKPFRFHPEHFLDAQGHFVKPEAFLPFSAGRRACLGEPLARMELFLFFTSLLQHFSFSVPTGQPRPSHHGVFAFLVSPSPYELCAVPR

Row | Structure (SMILES) | MIC [1] | MIC [2] | other results
1 | c1ccc2c(c1)Sc1ccccc1N2CCN1CCC(NCc2cc3c(cn2)OCCC3)CC1 | > 16 µg/mL | 16 µg/mL (≈ 33.9 µM) | –
2 | N#Cc1ccc2ccc(=O)n(CCN3CCC(NCc4ccc5c(c4)CCCO5)CC3)c2c1 | 0.25 µg/mL (≈ 0.565 µM) | < 0.125 µg/mL | –
3 | O=c1ccn2nccc2n1CCN1CCC(NCc2cc3c(cn2)OCCC3)CC1 | 8 µg/mL (≈ 19.6 µM) | 2 µg/mL (≈ 4.9 µM) | –
4 | N#Cc1ccc2ccc(=O)n(CCN3CCC(NCc4ccc5c(c4)NC(=O)CO5)CC3)c2c1 | – | – | IC50 [3]: 0.0034 µM; inhibition (INH) [4]: Not Active; inhibition (INH) [5]: Not Active; inhibition (INH) [6]: Not Active; IC50 [7]: 1.3 µM; inhibition (INH) [8]: Not Active; inhibition (INH) [9]: Not Active
5 | CCOC(=O)C1COc2cc(CNC3CCN(CCn4c(=O)ccc5ccc(C#N)cc54)CC3)ccc2O1 (configuration not stated) | > 16 µg/mL | > 16 µg/mL | –
6 | N#Cc1cnn2ccc(=O)n(CCN3CCC(NCc4cc5c(cn4)OCCC5)CC3)c12 | 2 µg/mL (≈ 4.61 µM) | 2 µg/mL (≈ 4.61 µM) | –
7 | N#Cc1ccc2ccc(=O)n(CCN3CCC(NCc4ccc5c(c4)NC(=O)CS5(=O)=O)CC3)c2c1 | > 16 µg/mL | > 16 µg/mL | –
8 | O=c1ccc2ccccc2n1CCN1CCC(NCc2cc3c(cn2)OCCC3)CC1 | 16 µg/mL (≈ 38.2 µM) | 1 µg/mL (≈ 2.39 µM) | –
9 | N#Cc1ccc2ccc(=O)n(CCN3CCC(NCc4ccc5c(c4)OCCO5)CC3)c2c1 | – | < 0.125 µg/mL | IC50 [3]: 0.044 µM; inhibition (INH) [4]: Not Active; inhibition (INH) [5]: Not Active; inhibition (INH) [6]: Not Active; IC50 [7]: 0.9 µM; inhibition (INH) [8]: Not Active; inhibition (INH) [9]: Not Active

Further lines, with some results ahead:

Row | MIC [1] | MIC [2] | Structure (SMILES) | other results
10 | > 16 µg/mL | > 16 µg/mL | N#Cc1ccc2ccc(=O)n(CCN3CCC(NCc4ccc5c(c4)OC(C(=O)O)CO5)CC3)c2c1 (configuration not stated) | –
11 | > 16 µg/mL | > 16 µg/mL | N#Cc1ccc2ccc(=O)n(CCN3CCC(NCc4ccc5c(c4)OCC(=O)N5)CC3)c2c1 | –
12 | > 16 µg/mL | > 16 µg/mL | c1ccc2c(c1)-c1ccccc1C2CCN1CCC(NCc2cc3c(cn2)OCCC3)CC1 | –
13 | > 16 µg/mL | > 16 µg/mL | CN1C(=O)C(C)(C)Oc2ccc(CNC3CCN(CCn4c(=O)ccc5ccc(C#N)cc54)CC3)cc21 | –
